Measurements reported in patent US7326384B2, “Method and apparatus for detecting physicochemical changes emitted by biological sample” (Matsushita Electric Industrial Co., Ltd., priority 2001, dated 2008).

What was measured:
[1] = tested on: ion channel of a Lymnaea stagnail neuron; test: Extracellular recording of neuron electrical signal at increasing Carbachol concentrations (apparatus of FIG. 8); format: cell-based; conditions: Carbachol 0, 0.1, 0.3, 1, 3, 10, 30 and 100 μM; 10 seconds time-series data; FIG. 12
From the text: FIG. 8 is a conceptual diagram showing a configuration of an apparatus comprising the above-described device for detecting physicochemical changes emitted by a biological sample, which is configured to measure and extract the ion channel activity of the biological sample. The apparatus comprises a measurement section (signal source) 101 comprising a device for detecting physicochemical changes emitted by the biological sample and measuring an action potential generated by a neuron, a unit standard deviation calculation section 102 for sampling a signal from the measurement section 101 and calculating the standard deviation of the signal, an average calculation section 105 for calculating the average of the obtained standard deviation, an activity calculation section 108 for calculating the ion channel activity of a cell from the average of the standard deviation output by the average calculation section 105, and a data displaying section 110 for displaying the calculated activity. Communications between each section are indicated by a dashed line or a solid line in FIG. 8. Note that the unit standard deviation calculation section 102, and the average calculation section 105, and the activity calculation section 108 may be representatively software programs which are recorded in a hard disk in a computer. The data displaying section 110 may be a CRT. […]

[2] = tested on: ion channel of a Lymnaea stagnail neuron; test: Extracellular recording of neuron before and after applying Carbachol, normal distribution of standard deviations (apparatus of FIG. 9); format: cell-based; conditions: after applying 50 μM Carbachol; 10 seconds data; FIG. 13
From the text: FIG. 9 is a conceptual diagram showing a configuration of an apparatus comprising the above-described device for detecting physicochemical changes emitted by a biological sample, which is configured to measure and extract the ion channel activity of the biological sample. The apparatus is the same as the apparatus of FIG. 8, except that the normal distribution approximation section 103, the average/half-width calculation section 106 and the activity categorization section 109 are employed in place of the average calculation section 105 and the activity calculation section 108. Communications between each section are indicated by a dashed line or a solid line in FIG. 9. […]
Before and after 50 μM-concentration Carbachol is applied to a Lymnaea stagnail neuron, signals were obtained from the measurement section (signal source) 101, and the standard deviation of the signals was calculated in a manner similar to that of Example 1. […]

SMILES: C[N+](C)(C)CCOC(N)=O [Carbachol]
- ion channel activation (average of the standard deviation every 100 miliseconds) [1]: activated depending on the Carbachol concentration
- average of the normal distribution of standard deviation values every 5 miliseconds [2]: 0.703
